# Results reported in publication PMC5394417, “Investigating the molecular mechanism of positive and negative allosteric modulators in the calcium-sensing receptor dimer” (Scientific Reports, 2017).
# Numbering of substitutions follows the chain as printed. “And” between values parts separate entries of the source, which are not always exact repeats. Identical values can stand only once.
# Molecular target: T1, HA-S170A + myc-F801A (S170A:F801A heterodimer) (Rattus norvegicus, UniProt P48442, F801A/S170A)
# T1 construct: mGluR5 signal peptide (N); expressed in transfected cells; host or cells: HEK293T
# T1 sequence (P48442 20-1079 S170A): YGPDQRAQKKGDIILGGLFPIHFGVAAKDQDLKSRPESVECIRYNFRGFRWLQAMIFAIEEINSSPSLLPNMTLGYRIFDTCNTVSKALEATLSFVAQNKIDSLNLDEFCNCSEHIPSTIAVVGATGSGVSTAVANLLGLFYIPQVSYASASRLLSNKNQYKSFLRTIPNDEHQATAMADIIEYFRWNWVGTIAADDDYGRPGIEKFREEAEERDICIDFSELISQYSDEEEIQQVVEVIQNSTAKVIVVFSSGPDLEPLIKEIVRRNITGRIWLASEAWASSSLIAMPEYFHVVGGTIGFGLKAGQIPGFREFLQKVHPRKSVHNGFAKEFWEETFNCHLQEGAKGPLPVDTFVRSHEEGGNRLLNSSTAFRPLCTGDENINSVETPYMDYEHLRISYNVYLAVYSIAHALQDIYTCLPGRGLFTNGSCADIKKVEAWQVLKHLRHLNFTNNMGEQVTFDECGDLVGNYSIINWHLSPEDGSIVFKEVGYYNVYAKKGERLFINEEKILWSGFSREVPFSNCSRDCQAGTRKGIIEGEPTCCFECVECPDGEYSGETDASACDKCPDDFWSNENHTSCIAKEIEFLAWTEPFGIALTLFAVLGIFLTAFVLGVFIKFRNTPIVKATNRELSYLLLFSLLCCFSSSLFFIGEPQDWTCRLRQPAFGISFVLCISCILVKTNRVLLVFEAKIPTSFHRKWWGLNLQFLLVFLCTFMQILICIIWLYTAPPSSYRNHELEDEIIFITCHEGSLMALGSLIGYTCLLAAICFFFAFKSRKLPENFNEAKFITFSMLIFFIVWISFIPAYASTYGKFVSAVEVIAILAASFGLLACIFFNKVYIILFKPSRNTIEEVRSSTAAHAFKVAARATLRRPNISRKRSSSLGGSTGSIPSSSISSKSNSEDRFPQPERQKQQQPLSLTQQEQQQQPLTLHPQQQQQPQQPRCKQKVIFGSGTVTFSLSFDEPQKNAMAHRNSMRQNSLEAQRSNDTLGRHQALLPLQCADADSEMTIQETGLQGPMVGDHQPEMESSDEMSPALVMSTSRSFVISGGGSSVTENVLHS
# T1 sequence (P48442 20-1079 F801A): T1 sequence (P48442 20-1079 S170A) with A151S, F782A
# Test: IP-One trans-activation assay, co-expression 1:1 in HEK293T
# Format: cell-based
# Description: Human embryonic kidney (HEK) 293T cells were cultured in DMEM supplemented with 10% dFBS and 1% P/S at 37 °C and 5% CO2. 48 h prior to assay, transient transfection was performed using Lipofectamine 2000 as the transfection reagent. White opaque 96-well culture plates (PerkinElmer, Waltham, MA, USA) were used for the ELISA and the TR-FRET dimerization assay, while clear tissue culture treated 96-well plates (Corning, Corning, NY, USA) were used for the IP-One assay. Both plate types were coated with poly-D-lysine before addition of cells and transfection mix. 0.25 μl/well of Lipofectamine 2000 were diluted in 25 μl/well of Opti-MEM and incubated at room temperature (RT) for 5 min. 0.03 μg/well of DNA was diluted in 25 μl/well of Opti-MEM, and subsequently mixed with the Lipofectamine 2000 dilution and incubated 20 min at RT before addition to the plates. Cell suspensions of 170.000 HEK293T cells/mL were prepared in complete growth medium and 100 μl/well (17.000 cells/well) was added to the plates, which were incubated for 48 h at 37 °C and 5% CO2 before performing assays.
# Functional activity was measured using the IP-One assay, which is an IP1 accumulation assay. For agonist testing, ligands were prepared in final concentrations in ligand buffer (HBSS, 20 mM HEPES, pH 7.4 supplemented with 20 mM LiCl). Cells were washed once with 100 μl/well of assay buffer (HBSS, 20 mM HEPES, pH 7.4) and 50 μl/well of agonist solution was added after which plates were incubated at 37 °C for 30 min. Subsequently, ligand solutions were removed and cells were washed with 100 μl/well of assay buffer. Cell lysis was performed by addition of 30 μl/well of IP-One Conjugate & Lysis Buffer (Cisbio Bioassays, Codolet, France) and plates were incubated at RT for 30 min. Afterwards, 30 μl/well of assay buffer was added to dilute the cell lysate. 10 μl/well of cell lysate was transferred from the 96-well plate to a 384-well Optiplate and 10 μl/well of detection solution (Assay buffer + 2.5% of anti-IP1 antibody cryptate Terbium conjugate + 2.5% IP1-d2 conjugate (Cisbio Bioassays, Codolet, France)) was also added. The 384-well plate was incubated for 1 h at RT in dark before being measured on an EnVision plate reader (PerkinElmer, Waltham, MA, USA). Upon excitation at 340 nm, emission at 615 nm and 665 nm was measured, and the FRET ratio (665 nm/615 nm) was converted to IP1 concentrations by interpolating values from an IP1 standard curve generated from a provided IP1 calibrator (Cisbio Bioassays, Codolet, France). When testing allosteric modulators, cells were pre-incubated for 30 min at 37 °C with 50 μl/well of ligand buffer supplemented with allosteric modulator and a final concentration of 1% DMSO. Afterwards, the buffer solution was removed and 50 μl/well of agonist solution in ligand buffer supplemented with allosteric modulator and a final concentration of 1% DMSO was added. Plates were incubated for 30 min at 37 °C followed by one wash in 100 μl/well of assay buffer. Cell lysis and detection was performed as described above.
# [1] = HA-S170A + myc-F801A trans-activation response, Ca^2+ alone
structure (smiles),measurement,setting,value
[Ca+2] [Ca^2+],EC50,[1],12.7 mM
same,Hill coefficient ± S.E.M.,[1],2.69 ± 0.19
same,pEC50 ± S.E.M.,[1],1.90 ± 0.03
same,Max ± S.E.M.,"HA-S170A + myc-F801A, maximum trans-activation response normalized to maximum response of WT CaSR",30% and 30 ± 1.9%
"CC(C)(Cc1ccc2ccccc2c1)NC[C@@H](O)COc1cccc(Cl)c1C#N.Cl [NPS 2143, NPS 2143 hydrochloride]",inhibition of Ca^2+-mediated response,"S170A:F801A heterodimer, highest tested NPS 2143 concentration (5 μM)",full inhibition
"COc1cccc([C@@H](C)NCCCc2ccccc2Cl)c1.Cl [NPS R-568, NPS R-568 hydrochloride]",potentiation of Ca^2+-mediated response,"S170A:F801A heterodimer, 0.05, 0.1 and 1 μM NPS R-568",concentration-dependent potentiation
